Source: patent US9663464B2, “Carbazole derivatives acting on 5-HT7 receptor” (KOREA INSTITUTE OF SCIENCE AND TECHNOLOGY, priority 2015, dated 2017)
Structures can show the parent of a compound that is named as a salt.

Key:
[1] = molecular target: T1, human gene recombinant 5-HT7 receptor expressed in CHO cells (Homo sapiens, UniProt P34969); assay: Binding affinity for the 5-HT7 serotonin receptor ([3H]LSD radioligand)
T1 construct: expressed in transfected cells; host or cells: CHO cells (membrane preparation)
Description: In this example, the human gene recombinant 5-HT7 receptor expressed in CHO cells was used. 1 nM [^3H]LSD, 5-HT7 receptor membrane (15 μg/well), a test drug, 10 mM MgCl2, 50 mM Tris-HCl buffer (pH 7.4) containing 0.1 mM EDTA, etc. were added to a vessel until the final volume reached 0.25 ml. The test drug was used at various concentrations. The mixture was cultured at 25° C. for 90 min. The culture was rapidly filtered through a Whatman GF/C glass fiber filter, which had been previously wetted with 0.3% polyethyleneimine using a Brandel harvester, to quench the reaction. The reaction mixture was washed with cold 50 mM Tris-HCl buffer. The filter was covered with MeltiLex, sealed in a sample bag, and dried in an oven. Counting was performed using MicroBeta (Wallac) and nonspecific binding was measured in the presence of […]. The K value of the test drug was obtained from nonlinear regression analysis (GraphPad Prism Program, San Diego, USA) of isotherms obtained by repeatedly performing the experiment on the drug at 10-11 stage concentrations in two test tubes (each twice).
The % inhibition values of the inventive compounds having different Y structures at a concentration of 10 μM against the 5-HT7 serotonin receptor were measured. Further, the binding affinity (Ki) values of the inventive compounds having different Y structures at a concentration of 10 μM for the 5-HT7 serotonin receptor were measured.

[2] = molecular target: 5-HT6 (Homo sapiens, UniProt P50406); assay: 5-HT6 receptor inhibition/binding (Tables 2-3)
[3] = molecular target: T2, 5-HT1A (Homo sapiens, UniProt P08908); assay: 5-HT1A receptor inhibition (Table 3); format: binding
T2 sequence (P08908 1-422): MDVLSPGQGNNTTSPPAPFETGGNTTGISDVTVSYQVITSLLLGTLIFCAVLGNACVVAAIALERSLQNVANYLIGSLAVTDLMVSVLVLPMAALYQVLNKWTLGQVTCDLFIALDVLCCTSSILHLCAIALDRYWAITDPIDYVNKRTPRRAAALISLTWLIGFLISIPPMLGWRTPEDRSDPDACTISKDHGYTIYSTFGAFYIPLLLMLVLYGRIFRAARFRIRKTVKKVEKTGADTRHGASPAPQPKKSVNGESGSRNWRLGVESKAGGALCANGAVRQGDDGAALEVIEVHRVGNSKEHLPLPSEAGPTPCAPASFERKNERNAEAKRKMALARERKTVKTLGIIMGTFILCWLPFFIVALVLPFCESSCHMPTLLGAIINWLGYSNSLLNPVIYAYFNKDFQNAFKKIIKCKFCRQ

[4] = molecular target: T3, 5-HT2C (Homo sapiens, UniProt P28335); assay: 5-HT2C receptor inhibition/binding (Tables 1-3)
T3 sequence (P28335 33-458): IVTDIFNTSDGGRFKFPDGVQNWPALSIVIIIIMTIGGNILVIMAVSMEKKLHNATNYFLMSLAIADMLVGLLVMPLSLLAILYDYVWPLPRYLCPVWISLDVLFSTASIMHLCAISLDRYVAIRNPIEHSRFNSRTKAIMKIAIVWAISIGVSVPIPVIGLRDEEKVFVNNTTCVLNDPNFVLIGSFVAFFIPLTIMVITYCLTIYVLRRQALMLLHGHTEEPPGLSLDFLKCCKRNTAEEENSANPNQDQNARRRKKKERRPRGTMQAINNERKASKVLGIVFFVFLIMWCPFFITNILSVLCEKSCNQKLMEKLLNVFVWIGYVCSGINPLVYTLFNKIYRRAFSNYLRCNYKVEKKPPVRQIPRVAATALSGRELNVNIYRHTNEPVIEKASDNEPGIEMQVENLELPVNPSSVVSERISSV

Sequence of 5-HT6 (P50406 whole entry, species assumed): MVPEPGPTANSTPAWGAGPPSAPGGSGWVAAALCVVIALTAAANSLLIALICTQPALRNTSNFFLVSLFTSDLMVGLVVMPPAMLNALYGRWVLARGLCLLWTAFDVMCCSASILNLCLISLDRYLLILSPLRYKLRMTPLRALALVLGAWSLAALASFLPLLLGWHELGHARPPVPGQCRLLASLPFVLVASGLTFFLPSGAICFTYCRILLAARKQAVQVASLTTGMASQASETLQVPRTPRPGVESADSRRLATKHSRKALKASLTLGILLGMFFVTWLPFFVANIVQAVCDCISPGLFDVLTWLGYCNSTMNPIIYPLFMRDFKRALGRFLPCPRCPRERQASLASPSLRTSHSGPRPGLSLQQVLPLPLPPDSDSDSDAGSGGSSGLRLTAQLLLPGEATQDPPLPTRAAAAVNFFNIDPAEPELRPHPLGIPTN
T1 sequence (P34969 whole entry): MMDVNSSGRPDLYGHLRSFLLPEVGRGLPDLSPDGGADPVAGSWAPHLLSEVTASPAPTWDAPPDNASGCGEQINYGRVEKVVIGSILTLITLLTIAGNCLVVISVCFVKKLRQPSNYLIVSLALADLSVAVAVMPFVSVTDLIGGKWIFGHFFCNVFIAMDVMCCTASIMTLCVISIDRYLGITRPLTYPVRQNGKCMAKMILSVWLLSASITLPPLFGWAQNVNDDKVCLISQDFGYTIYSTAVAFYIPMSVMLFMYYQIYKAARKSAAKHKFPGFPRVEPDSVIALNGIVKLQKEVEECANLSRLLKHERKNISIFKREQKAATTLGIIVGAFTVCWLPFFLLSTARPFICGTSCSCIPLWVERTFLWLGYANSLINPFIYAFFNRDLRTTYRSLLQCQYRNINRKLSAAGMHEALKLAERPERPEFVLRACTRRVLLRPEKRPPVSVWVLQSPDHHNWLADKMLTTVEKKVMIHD

Compound	Ki [1] [nM]	inhibition at 10 µM [1] [%]	inhibition at 10 µM [2] [%]	inhibition at 10 µM [3] [%]	Ki [2] [nM]	inhibition at 10 µM [4] [%]	Ki [4] [nM]
CN1CCN(CCCCC(=O)n2c3ccccc3c3ccccc32)CC1 [Example 2.28, 1-(9H-carbazol-9-yl)-5-(4-methylpiperazin-1-yl)pentan-1-one hydrochloride]		40.4	78.4	15.9			
c1ccc(CC2CCN(CCCCCCn3c4ccccc4c4ccccc43)CC2)cc1 [Example 2.44, 9-(6-(4-Benzylpiperidin-1-yl)hexyl)-9H-carbazole]	232	86.8	97.8		142		
COc1ccccc1N1CCN(CCCC(=O)n2c3ccccc3c3ccccc32)CC1 [Example 2.34, 1-(9H-carbazol-9-yl)-4-(4-(2-methoxyphenyl)piperazin-1-yl)butan-1-one]	33	97.7	51.5	104		74.2	
c1ccc(CN2CCN(CCCCCCn3c4ccccc4c4ccccc43)CC2)cc1 [Example 2.47, 9-(6-(4-Benzylpiperazin-1-yl)hexyl)-9H-carbazole]	602	86	77.5	62			
c1ccc(C2CCN(CCCCn3c4ccccc4c4ccccc43)CC2)cc1 [Example 2.54, 9-(4-(4-Phenylpiperidin-1-yl)butyl)-9H-carbazole]	205	94.4	55.5		1430		
O=C(CCCCN1CCN(c2ccccc2O)CC1)n1c2ccccc2c2ccccc21 [Example 2.30, 1-(9H-carbazol-9-yl)-5-(4-(2-hydroxyphenyl)piperazin-1-yl)pentan-1-one hydrochloride]	86	98.7	62.6	102			
c1ccc(CN2CCN(CCCn3c4ccccc4c4ccccc43)CC2)cc1 [Example 2.58, 9-(3-(4-Benzylpiperazin-1-yl)propyl)-9H-carbazole]	404	88.7	15.1	64.9			
O=C(CCCCN1CCC(Cc2ccccc2)CC1)n1c2ccccc2c2ccccc21 [Example 2.26, 5-(4-Benzylpiperidin-1-yl)-1-(9H-carbazol-9-yl)pentan-1-one hydrochloride]	312	97.4	93.4		302	43.1	
c1ccc(C2CCN(CCCn3c4ccccc4c4ccccc43)CC2)cc1 [Example 2.57, 9-(3-(4-Phenylpiperidin-1-yl)propyl)-9H-carbazole]	353	91.1	32.9				
O=C(CCCCN1CCC(c2ccccc2)CC1)n1c2ccccc2c2ccccc21 [Example 2.25, 1-(9H-carbazol-9-yl)-5-(4-phenylpiperidin-1-yl)pentan-1-one hydrochloride]	153	96	67		1500	53.2	905
CN1CCN(CCCCCCn2c3ccccc3c3ccccc32)CC1 [Example 2.46, 9-(6-(4-Methylpiperazin-1-yl)hexyl)-9H-carbazole]		49.4	82.2	19.3			
c1ccc(C2CCN(CCCCCCn3c4ccccc4c4ccccc43)CC2)cc1 [Example 2.43, 9-(6-(4-Phenylpiperidin-1-yl)hexyl)-9H-carbazole]	212	89.9	94.9		169		
O=C(CCCN1CCN(Cc2ccccc2)CC1)n1c2ccccc2c2ccccc21 [Example 2.32, 4-(4-Benzylpiperazin-1-yl)-1-(9H-carbazol-9-yl)butan-1-one hydrochloride]	404	90.8	14.7	69.4			
c1ccc(C2CCN(CCCCCn3c4ccccc4c4ccccc43)CC2)cc1 [Example 2.50, 9-(5-(4-Phenylpiperidin-1-yl)pentyl)-9H-carbazole]	178	94.1	96.1		123		
CC(=O)N1CCN(CCCCCCn2c3ccccc3c3ccccc32)CC1 [Example 2.45, 1-(4-(6-(9H-carbazol-9-yl)hexyl)piperazin-1-yl)ethanone]	1480	63.1	35	6.2			

Now from value to molecule, other results behind:

Ki [1] [nM]	inhibition at 10 µM [1] [%]	inhibition at 10 µM [2] [%]	inhibition at 10 µM [3] [%]	Ki [2] [nM]	Compound	inhibition at 10 µM [4] [%]	Ki [4] [nM]
145	85.7	85.1	105		COc1ccccc1N1CCN(CCCCCCn2c3ccccc3c3ccccc32)CC1 [Example 2.49, 9-(6-(4-(2-Methoxyphenyl)piperazin-1-yl)hexyl)-9H-carbazole]		
64	92.5	56.3	104		COc1ccccc1N1CCN(CCCCn2c3ccccc3c3ccccc32)CC1 [Example 2.56, 9-(4-(4-(2-Methoxyphenyl)piperazin-1-yl)butyl)-9H-carbazole]		
65	91.5	75.5	101		COc1ccccc1N1CCN(CCCCCn2c3ccccc3c3ccccc32)CC1 [Example 2.53, 9-(5-(4-(2-Methoxyphenyl)piperazin-1-yl)pentyl)-9H-carbazole]		
50	97	16.1	101		O=C(CCCN1CCN(c2ccccc2O)CC1)n1c2ccccc2c2ccccc21 [Example 2.33, 1-(9H-carbazol-9-yl)-4-(4-(2-hydroxyphenyl)piperazin-1-yl)butan-1-one]		
31	94.4	95.5	103		Oc1ccccc1N1CCN(CCCCCn2c3ccccc3c3ccccc32)CC1 [Example 2.52, 2-(4-(5-(9H-carbazol-9-yl)pentyl)piperazin-1-yl)phenol]		
233	86.8	65.1	74.9		c1ccc(CN2CCN(CCCCCn3c4ccccc4c4ccccc43)CC2)cc1 [Example 2.51, 9-(5-(4-Benzylpiperazin-1-yl)pentyl)-9H-carbazole]		
155	90.7	12.2	103		COc1ccccc1N1CCN(CCCn2c3ccccc3c3ccccc32)CC1 [Example 2.60, 9-(3-(4-(2-Methoxyphenyl)piperazin-1-yl)propyl)-9H-carbazole]		
96	94.7	21.7	105		Oc1ccccc1N1CCN(CCCn2c3ccccc3c3ccccc32)CC1 [Example 2.59, 2-(4-(3-(9H-carbazol-9-yl)propyl)piperazin-1-yl)phenol]		
89	90.5	96.9	105		Oc1ccccc1N1CCN(CCCCCCn2c3ccccc3c3ccccc32)CC1 [Example 2.48, 2-(4-(6-(9H-carbazol-9-yl)hexyl)piperazin-1-yl)phenol]		
